ChEMBL document CHEMBL1144400 (J Med Chem, 2005)

Biological target: Coagulation factor X (Homo sapiens, UniProt P00742)
Assay: Binding affinity for human factor Xa

Coagulation factor X, sequence (P00742 41-179 limits assumed): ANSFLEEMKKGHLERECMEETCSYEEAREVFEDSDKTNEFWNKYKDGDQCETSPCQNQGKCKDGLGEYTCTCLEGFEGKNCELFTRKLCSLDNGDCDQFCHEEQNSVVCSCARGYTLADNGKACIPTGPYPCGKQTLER
Coagulation factor X, sequence (P00742 235-488 limits assumed): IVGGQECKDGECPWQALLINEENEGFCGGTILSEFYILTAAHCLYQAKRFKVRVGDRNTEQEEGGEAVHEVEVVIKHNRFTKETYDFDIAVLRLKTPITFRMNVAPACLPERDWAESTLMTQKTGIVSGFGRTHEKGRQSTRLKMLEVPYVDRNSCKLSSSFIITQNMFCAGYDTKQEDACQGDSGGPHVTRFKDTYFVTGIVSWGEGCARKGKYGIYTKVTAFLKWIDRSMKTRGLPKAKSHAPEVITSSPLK

Row | SMILES | Ki [nM]
1 | Cc1ccc(C)c2c1cc(C(=O)NC1CCN(C(C)C)CC1)n2Cc1cc(-c2ccc(Cl)s2)on1 | 1
2 | CC(C)N1CCC(NC(=O)c2cc3c(Cl)cccc3n2Cc2cc(-c3ccc(Cl)s3)on2)CC1 | 7
3 | Cc1c(C(=O)NC2CCN(C(C)C)CC2)n(Cc2cc(-c3ccc(Cl)s3)on2)c2ccccc12 | 3
4 | CC(C)N1CCC(NC(=O)c2c(C#N)c3ccccc3n2Cc2cc(-c3ccc(Cl)s3)on2)CC1 | 0.3
5 | CC(C)N1CCC(NC(=O)c2cc3cccc(Cl)c3n2Cc2cc(-c3ccc(Cl)s3)on2)CC1 | 0.7
6 | Cc1cccc2c(C#N)c(C(=O)NC3CCN(C(C)C)CC3)n(CC(=O)Nc3ccc(Cl)cc3)c12 | 26
7 | Cc1cccc2c1cc(C(=O)NC1CCN(C(C)C)CC1)n2CC(=O)Nc1ccc(C(=N)N)cc1 | 25
8 | CC(C)N1CCC(NC(=O)c2cc3cc(Br)ccc3n2Cc2cc(-c3ccc(Cl)s3)on2)CC1 | 9
9 | Cc1ccc2cc(C(=O)NC3CCN(C(C)C)CC3)n(Cc3cc(-c4ccc(Cl)s4)on3)c2c1 | 18
10 | Cc1cccc2c(C#N)c(C(=O)NC3CCN(C(C)C)CC3)n(Cc3cc(-c4ccc(Cl)s4)on3)c12 | 0.07
11 | COc1cccc(Cn2c(C(=O)NC3CCN(C(C)C)CC3)c(C#N)c3cccc(C)c32)c1 | 406
12 | CC(C)N1CCC(NC(=O)c2cc3cc(F)ccc3n2Cc2cc(-c3ccc(Cl)s3)on2)CC1 | 3
13 | CC(C)N1CCC(NC(=O)c2cc3cccc([N+](=O)[O-])c3n2Cc2cc(-c3cc(Cl)cs3)on2)CC1 | 0.1
14 | CC(C)N1CCC(NC(=O)c2c(C#N)c3cc(S(C)(=O)=O)ccc3n2Cc2cc(-c3ccc(Cl)s3)on2)CC1 | 7
15 | Cc1cccc2cc(C(=O)NC3CCN(C(C)C)CC3)n(CC(=O)Nc3ccc(Cl)cc3)c12 | 3
